{"source": "patent US20250326722A1", "about": "(SHANGHAI HANSOH BIOMEDICAL CO., LTD., priority 2022, published 2025)", "origin": "cited, not measured here", "system": "LDL-C", "details": "combined with a statin; cited from earlier work", "data": [{"smiles": "O=C1[C@H](CC[C@H](O)c2ccc(F)cc2)[C@@H](c2ccc(O)cc2)N1c1ccc(F)cc1", "note": "[Ezetimibe]", "values": [{"measurement": "LDL-C reduction", "result": "15-20%"}]}]}
